This note sets out measurements from patent publication US8586505B2 (SDS Biotech K. K., priority 2009, dated 2013).

Holding throughout (type): in vivo
Assay [1] deals with Phytophthora infestans. Description: whole plant or invertebrate. Conditions: in Solanum lycopersicum, 96 h, read-out: Determination of control effect (preventive value).
In assay [2] the test system is Pseudoperonospora cubensis. Put plainly: Test of examining control effect on Pseudoperonospora cubensis (potted cucumber plants). Conditions: 96 h, 10% wettable powder adjusted to 125 ppm, 15 ml/pot sprayed on potted cucumber plants one day before spray inoculation, assessed after 1 day wet chamber and 3 days greenhouse, read-out: Determination of control effect (preventive value) on Pseudoperonospora cubensis. As to the method: (§1) Calculation of Preventive Value: Preventive value={(untreated lesion area rate−treated lesion area rate)/untreated lesion area rate}×100
(§2) Using the thus calculated preventive value, the control effect of each compound was determined in accordance with the following standards.
(§3) High control effect: 100%≧preventive value≧60%
(§4) Low control effect: 60%>preventive value≧0%
Using a spray gun, an agent solution prepared by adjusting a 10% wettable powder of each sample compound to 125 ppm (hereinafter referred to as a “sample agent solution”) was sprayed to potted cucumber plants (variety: Sagamihanjiro, 2.5 leave stage) in a concentration of 15 ml/pot. One day after the spraying, a conidial suspension of Pseudoperonospora cubensis (conidial concentration: 1.0×10^4 cells/ml) was applied to the plants by spray inoculation. After completion of the inoculation, the plants were left at 21° C. under wet chamber conditions for 1 day, and were then left in a greenhouse for 3 days, so that they were fully infected with the aforementioned disease. Thereafter, the disease level on each leaf was compared with that on an untreated leaf, and the control effect of each compound was determined in the same manner as in Example 3(1).

Assay [3] has as its system Sphaerotheca fuliginea. Put plainly: Test of examining control effect on Sphaerotheca fuliginea (potted cucumber plants). Particulars: Podosphaera fuliginea, 336 h; 10% wettable powder adjusted to 125 ppm, 15 ml/pot sprayed on potted cucumber plants one day before spray inoculation; assessed after 14 days in greenhouse; read-out: Determination of control effect (preventive value) on Sphaerotheca fuliginea. As to the method: as §1, §2, §3, §4
Using a spray gun, an agent solution prepared by adjusting a 10% wettable powder of each sample compound to 125 ppm (hereinafter referred to as a “sample agent solution”) was sprayed to potted cucumber plants (variety: Sagamihanjiro, 2nd leave stage) in a concentration of 15 ml/pot. One day after the spraying, a conidial suspension of Sphaerotheca fuliginea (conidial concentration: 1.0×10^5 cells/ml) was applied to the plants by spray inoculation. The plants were left in a greenhouse for 14 days, so that they were fully infected with the aforementioned disease. Thereafter, the disease level on each leaf was compared with that on an untreated leaf, and the control effect of each compound was determined in the same manner as in Example 3(1).

For `CC(C)(C)C#CCCNc1ncnc2sccc12` [compound 8], the pest or weed control at 125 ppm in assay [1] was in the range of 60 to 100%. The pest or weed control at 125 µg/mL in assay [2] and in assay [3] was 60 to 100% in each case.
In the case of `C(#Cc1ncccn1)CCNc1ncnc2sccc12` [compound 58], in assay [1], the pest or weed control at 125 ppm was in the range of 60 to 100%. Besides, the pest or weed control at 125 µg/mL in assay [2] fell in the range of 60 to 100%; in assay [3], 0 to 60%.
Consider `COc1ccccc1C#CCCNc1ncnc2sccc12` [compound 21], for which the pest or weed control at 125 ppm in assay [1] was 60 to 100%. For the same compound, the pest or weed control at 125 µg/mL in assay [2] was 60 to 100%; in assay [3], 0 to 60%.
Consider `CC(CC#Cc1ccccc1OC(C)C)Nc1ncnc2sccc12` (stereo not drawn) [compound 242], for which, in assay [1], the pest or weed control at 125 ppm fell in the range of 0 to 60%. Moreover, the pest or weed control at 125 µg/mL in assay [2] and in assay [3] was 60 to 100% throughout.
As for `CC(CC#Cc1ncccc1C(F)(F)F)Nc1ncnc2sccc12` (stereo not drawn) [compound 264], in assay [1], the pest or weed control at 125 ppm is 60 to 100%. For the same compound, the pest or weed control at 125 µg/mL in assay [2] and in assay [3] was 60 to 100% each time.
As to `FC(F)(F)c1ccccc1C#CCCNc1ncnc2ccc(Cl)cc12` [compound 309], the pest or weed control at 125 ppm in assay [1] lay in the range of 0 to 60%. Also, the pest or weed control at 125 µg/mL in assay [2] and in assay [3] was 60 to 100% throughout.
Regarding `CC(CC#Cc1ccc(F)cc1)Nc1ncnc2sccc12` (stereo not drawn) [compound 230], the pest or weed control at 125 ppm in assay [1] is 60 to 100%. For the same compound, the pest or weed control at 125 µg/mL in assay [2] and in assay [3] was 60 to 100% in each case.
In the case of `CC(CC#Cc1cccc(C(F)(F)F)c1)Nc1ncnc2sccc12` (stereo not drawn) [compound 234], the pest or weed control at 125 ppm in assay [1] lay in the range of 0 to 60%. Further, the pest or weed control at 125 µg/mL in assay [2] and in assay [3] was 60 to 100% throughout.
Consider `COC(=O)N(OC)c1ccccc1C#CCCNc1ncnc2ccccc12` [compound 125], for which the pest or weed control at 125 ppm in assay [1] is 60 to 100%. The figures for the pest or weed control at 125 µg/mL in assay [2] and in assay [3] were 60 to 100% and 0 to 60%, respectively.
Regarding `COCc1ccccc1C#CCCNc1ncnc(Cl)c1Cl` [compound 365], the pest or weed control at 125 ppm in assay [1] is 60 to 100%. For the same compound, the pest or weed control at 125 µg/mL in assay [2] and in assay [3] was 60 to 100% throughout.
On to `COc1cccc2c(NC(C)CC#Cc3ccc(F)cc3C(F)(F)F)ncnc12` (stereo not drawn) [compound 353], for which the pest or weed control at 125 ppm in assay [1] was 0 to 60%. Also, the pest or weed control at 125 µg/mL in assay [2] and in assay [3] was 60 to 100% throughout.
For `OCCc1ccccc1C#CCCNc1ncnc2ccccc12` [compound 158], the pest or weed control at 125 ppm in assay [1] lay within 0 to 60%. Besides, the pest or weed control at 125 µg/mL in assay [2] and in assay [3] was 60 to 100% throughout.
As to `COCOc1ccc(C#CCCNc2ncnc3ccccc23)cc1` [compound 121], the pest or weed control at 125 ppm in assay [1] was in the range of 60 to 100%. Besides, the pest or weed control at 125 µg/mL in assay [2] and in assay [3] was 60 to 100% each time.
Consider `CC(CC#Cc1ccc(C(F)(C(F)(F)F)C(F)(F)F)cc1Cl)Nc1ncnc2ccccc12` (stereo not drawn) [compound 281], for which the pest or weed control at 125 ppm in assay [1] fell in the range of 0 to 60%. Moreover, the pest or weed control at 125 µg/mL in assay [2] and in assay [3] was 60 to 100% each time.
On to `Cc1ccc(C#CCC(C)Nc2ncnc3ccccc23)cc1` (stereo not drawn) [compound 279], for which, in assay [1], the pest or weed control at 125 ppm lay in the range of 60 to 100%. Also, the pest or weed control at 125 µg/mL in assay [2] and in assay [3] was 60 to 100% in each case.
On to `CC(CC#Cc1ccc(Cl)cc1C(F)(F)F)Nc1ncnc2c(Cl)cccc12` (stereo not drawn) [compound 349], for which the pest or weed control at 125 ppm in assay [1] was 0 to 60%. For the same compound, the pest or weed control at 125 µg/mL in assay [2] and in assay [3] was 60 to 100% in each case.
Turning to `CCc1ccccc1C#CCCNc1ncnc2ccccc12` [compound 103], the pest or weed control at 125 ppm in assay [1] lay within 60 to 100%. Further, the pest or weed control at 125 µg/mL in assay [2] and in assay [3] was 60 to 100% in each case.
Turning to `CN1C(=O)c2ccc(C#CCCNc3ncnc4sccc34)cc2C1=O` [compound 84], the pest or weed control at 125 ppm in assay [1] is 60 to 100%. The pest or weed control at 125 µg/mL in assay [2] lay in the range of 60 to 100%; in assay [3] it was 0 to 60%.
